Measurements reported in PMC10342533, “Novel Tetrazole Derivatives Targeting Tubulin Endowed with Antiproliferative Activity against Glioblastoma Cells” (International Journal of Molecular Sciences, 2023).

Experiments:
[1] = tested on: MCF7 (breast adenocarcinoma); experiment: Cell growth inhibition, MTT assay, MCF7; type: cell-based; conditions: Homo sapiens
Method: The ability of the synthesized compounds to inhibit the cell proliferation of human cancer cell lines was assayed by measuring cell viability through the use of the MTT method 72 h after treatment. For this purpose, representative cell lines of the most frequent kinds of cancer were selected, including the following: HeLa (cervix epithelioid carcinoma), MCF7 (breast adenocarcinoma), U87 MG (glioblastoma), T98G (temozolomide resistant glioblastoma), HepG2 (hepatocellular carcinoma), HCT8 (colorectal carcinoma), and HT-29 (colon adenocarcinoma).
The cell lines were obtained from ATTC (Manassas, VA, USA). […] The cells were periodically tested for Mycoplasma infection by using a MycoAlert kit (Lonza, Norwest, Australia), and only Mycoplasma-free cells were used in the experiments.
Then, every compound was added (10 µL/well) to a final concentration of 10 µM. Untreated cells were used as negative controls. The antiproliferative activity of compounds was measured 72 h after drug exposure through the MTT assay. […] For this purpose, compounds were used at different concentrations, ranging from 10^−10 to 10^−2 M. Measurements were performed in triplicate, and each experiment was repeated three times. The IC50 values were determined using Origin software (version 9.6, OriginLab, Washington, DC, USA).

[2] = tested on: microtubule network of U87 MG cells; experiment: Immunofluorescence confocal microscopy of microtubule network, U87 MG; type: cell-based, human; conditions: 24 h, 100 nM, α-tubulin immunofluorescence
Method: (§1) To elucidate if the interaction of the compounds with tubulin inferred from the in vitro TPI experiments has consequences on cellular microtubules, we studied the effect of representative compounds on the microtubule network of HeLa, MCF7, and U87 MG cells 24 h after treatment via the use of immunofluorescence confocal microscopy through α-tubulin and nuclei labeling.
(§2) HeLa, MCF7, and U87 MG cells (8·10^4 cells/mL) were grown on 0.01% poly-L-lysine pre-coated square glass coverslips (22 mm^2), deposited on 6-well plates (1 coverslip/well), and incubated in complete DMEM medium (see above) at 37 °C and 5% CO2 atmosphere for 24 h. Then, the cells were incubated for 24 h in the presence or absence (negative controls) of selected compounds (10, 12, or 14) at 100 nM. After drug treatment incubation, medium was removed, and coverslips were washed three times with PBS, fixed with 4% formaldehyde in PBS for 10 min, permeabilized with 0.5% Triton X-100, (Sigma-Aldrich, St. Louis, MO, USA) in PBS for 90 s at 4 °C, blocked with 10% BSA in PBS for 30 min, and washed with PBS four times. The coverslips were incubated for 1 h with anti-α-tubulin mouse monoclonal antibody (Sigma-Aldrich, St. Louis, MO, USA), diluted 1:200 in PBS containing 3% BSA, washed four times with PBS, and then incubated in darkness with the fluorescent secondary antibody Alexa Fluor 488 goat anti-mouse IgG (Molecular Probes, Invitrogen, Eugenen, OR, USA) and diluted 1:400 in PBS containing 1% BSA for 1.5 h. The coverslips were washed four times with PBS, and a drop of ProLong™ Gold Antifade Mountant containing DAPI (ThermoFisher, Waltham, MA, USA) was added for cell nuclei staining. The samples were analyzed via confocal microscopy, which was performed by using a LEICA SP5 microscope DMI-6000V model coupled to a LEICA LAS AF software computer.

U87 MG cells = experiment: Apoptotic cell death quantification, Annexin V-FITC/PI, U87 MG; type: cell-based, human; conditions: 72 h, 100 nM; for Necrotic cells: PI+ AnV−; for Live cells: PI− AnV−
Method: (§3) To characterize the cell death mechanism induced by the representative compounds 10, 12, or 14 at 100 nM on HeLa, MCF7, and U87 MG cells, dual-channel flow cytometry studies were carried out for cells in the absence (negative control) or presence of compounds 72 h after treatment. Fluorescein isothiocyanate-labeled Annexin V (FITC-AnV) and propidium iodide (PI) were used for double staining. Regarding their response to AnV and PI, cells can be identified as viable (PI−, AnV−), early apoptotic (PI−, AnV+), late apoptotic or secondary necrotic (PI+, AnV+), or necrotic (PI+, AnV−). The translocation of the phosphatidylserine from the inner to the outer cell membrane causes the response of apoptotic cells to AnV, whereas only cells suffering some kind of membrane disintegration (late apoptotic or necrotic cells) allow PI permeation.
(§4) Following the manufacturer’s guidelines, an Annexin V-FITC/PI apoptosis detection kit (Immunostep, Salamanca, Spain) was used to quantify HeLa, MCF7, or U87 MG cells. Cells were seeded in 12-well plates (5·10^4 cells/mL, 1 mL/well) and incubated in complete DMEM medium (see above) at 37 °C and 5% CO2 atmosphere for 24 h. Then, the cells were treated with selected compounds (10, 12, or 14) at 100 nM, and untreated cells were used as negative controls. Then, 72 h after incubation, the cells were harvested, centrifugated, resuspended in the Annexin V binding buffer, and incubated in darkness with Annexin V-FITC/PI for 15 min at room temperature. The samples were analyzed by using a BD Accuri™ C6 Plus Flow Cytometer (BD Biosciences), and acquired data were analyzed via BD Accuri™ C6 Software (version 1.0.264.21).

MCF7 cells = experiment: Apoptotic cell death quantification, Annexin V-FITC/PI, MCF7; type: cell-based, human; conditions: MCF7, 72 h, 100 nM; for Necrotic cells: PI+ AnV−
Method: as §3, §4

[3] = tested on: microtubule network of MCF7 cells; experiment: Immunofluorescence confocal microscopy of microtubule network, MCF7; type: cell-based, human; conditions: MCF7, 24 h, 100 nM, α-tubulin immunofluorescence
Method: as §1, §2

[4] = tested on: HEK-293 (embryonic kidney); experiment: Cell growth inhibition, MTT assay, non-tumor HEK-293; type: cell-based; conditions: Homo sapiens, HEK293, 72 h, non-tumorigenic cell line
Method: The ability of the synthesized compounds to inhibit the cell proliferation of human cancer cell lines was assayed by measuring cell viability through the use of the MTT method 72 h after treatment. For this purpose, representative cell lines of the most frequent kinds of cancer were selected, including the following: HeLa (cervix epithelioid carcinoma), MCF7 (breast adenocarcinoma), U87 MG (glioblastoma), T98G (temozolomide resistant glioblastoma), HepG2 (hepatocellular carcinoma), HCT8 (colorectal carcinoma), and HT-29 (colon adenocarcinoma). […] The compounds were also tested against the non-tumor HEK-293 cells to study their selectivity toward cancer cells. […] The cell lines were obtained from ATTC (Manassas, VA, USA). […] The cells were periodically tested for Mycoplasma infection by using a MycoAlert kit (Lonza, Norwest, Australia), and only Mycoplasma-free cells were used in the experiments. […] Louis, MO, USA), which was dissolved in PBS at 5 mg/mL in accordance with the manufacturer's instructions. […] Untreated cells were used as negative controls. The antiproliferative activity of compounds was measured 72 h after drug exposure through the MTT assay. […] For this purpose, compounds were used at different concentrations, ranging from 10^-10 to 10^-2 M. Measurements were performed in triplicate, and each experiment was repeated three times. The IC50 values were determined using Origin software (version 9.6, OriginLab, Washington, DC, USA).

SMILES	IC50 ([1]; 72 h after drug exposure)	IC50 ([1]; mean ± SD, Table S1)	effect on microtubule network [2]	apoptotic response (U87 MG cells)	Necrotic cells (U87 MG cells)	Live cells (U87 MG cells)	early and late apoptotic populations (MCF7 cells)	Necrotic cells (MCF7 cells)	effect on microtubule network [3]	IC50 [4]
CSc1cc(-c2nnnn2-c2ccc3c(ccn3C)c2)cc(Cl)n1 [Compound 10, 5-(5-(2-chloro-6-(methylsulfanyl)pyridin-4-yl)-1H-tetrazol-1-yl)-1-methyl-1H-indole]	38 nM	38.4 ± 0.4 nM	severe microtubule network disruption	70–74%	15–19%	9–15%	22%	2.3%	severe microtubule network disruption	4390 nM
Cn1cc(C=O)c2cc(-n3nnnc3-c3cc(Cl)nc(Cl)c3)ccc21 [Compound 12, 5-(5-(2,6-dichloropyridin-4-yl)-1H-tetrazol-1-yl)-1-methyl-1H-indole-3-carbaldehyde]	37 nM	37.3 ± 0.2 nM	severe microtubule network disruption	70–74%	15–19%	9–15%	8%	7%	severe microtubule network disruption	3080 nM
CSc1cc(-c2nnnn2-c2ccc3c(c2)c(C=O)cn3C)cc(Cl)n1 [Compound 14, 5-(5-(2-chloro-6-(methylsulfanyl)pyridin-4-yl)-1H-tetrazol-1-yl)-1-methyl-1H-indole-3-carbaldehyde]	26 nM	26.2 ± 0.1 nM	severe microtubule network disruption	70–74%	15–19%	9–15%	29%	2.6%	severe microtubule network disruption	2270 nM
